In data set [1] the test system is CFA mono-arthritic knee joints in Sprague-Dawley rats. The experiment in a line: Knee joint circumference in CFA-induced monoarthritis. Format: in vivo, rat. The conditions noted are these: Post-CBD, four consecutive days (day 4), mean ± SD.
Data set [2] shares this test system. The data set is described as follows: Knee joint temperature in CFA-induced monoarthritis. Type of data set: in vivo, rat. The settings on record: for Knee joint temperature: Post-CBD, four consecutive days (day 4), mean ± SD.
Data set [3] concerns rats with CFA induced mono-arthritis. The data set is described as follows: Secondary thermal hyperalgesia, paw withdrawal latency (PWL) test, CFA rats. Format: in vivo, rat.
The next data set relates to normal rats. The experiment in a line: Paw withdrawal latency (PWL) test, normal rats. Type of data set: in vivo, rat. The conditions noted are these: any CBD dose (0.6, 3.1, 6.2 mg/d). As for the experimental part:
Secondary thermal hyperalgesia was assessed with the paw withdrawal latency (PWL) test (Hargreaves et al. (1988) Pain 32: 77-88). PWLs were measured in response to a radiant heat source shone on one hind paw of the animals from beneath a glass top table. A shortened PWL response in animals with knee joint inflammation was indicative of secondary thermal hyperalgesia. Animals were placed in separate plastic cubicles (4×4×10 in) on a glass top table (2 mm thickness of glass) and allowed to adapt to their new environment for 20-30 min before testing. A small movable metal box that focused a high-intensity light beam through an aperture (0.5 cm×0.5 cm) was attached to an on/off switch and a digital timer. […] At that time, the light is switched off and the number of seconds on the digital timer recorded as the PWL (sec). […] A mean of the 5 trials was calculated for each animal. […]
(§1) Baseline parameters (body weight, knee joint temperature, and knee joint circumference) were obtained before the knee injection of rats with CFA. […] Exploratory activity was monitored prior to initial gel application and on the third day post gel application (after 6 h). […] Blood samples were obtained for CBD plasma quantification, and tissues (knee joints, dorsal root ganglia, spinal cord, brain) were collected after perfusion. […]

The test system of the next data set is normal (non-CFA) rats. The experiment in a line: Open field exploratory behavioral activity. Type of data set: in vivo, rat. The settings on record: 0.6 to 62.3 mg/d, pre-dose versus post-dose and among dose groups. As for the experimental part:
Exploratory behavioral activity of the rats was monitored using the Flexfield Animal Activity System (San Diego Instruments; San Diego, Calif.) with a Photobeam Activity System software coupled to a computer according to previously published methods by Zhang et al., (2004) Pharmacol Biochem Behav 77: 145-153. Briefly, six main parameters were recorded: rearing events and rearing time, active time and resting time, total activity (i.e. number of photobeams disturbed in the x-y-z planes while the rat was moving around in the box or involved in stationary movement such as grooming), and distance traveled. Activity testing was conducted in an isolated, temperature controlled area at similar times daily in order to provide consistent results.
as §1, with “CFA. PWL test and exploratory activity testing were also conducted prior to CFA injection. Rats were anesthetized with a short term anesthetic and the left knee joint cavity was injected with CFA for induction of mono-arthritis.” for “CFA.”

A short description of data set [4]: Plasma CBD concentration after topical gel application (LC/MS). The settings on record: plasma concentration versus dose, 0.6, 3.1 and 6.2 mg/d. Type of data set: in vivo, rat. As for the experimental part: Baseline parameters (body weight, knee joint temperature, and knee joint circumference) were obtained before the knee injection of rats with CFA. PWL test and exploratory activity testing were also conducted prior to CFA injection. Rats were anesthetized with a short term anesthetic and the left knee joint cavity was injected with CFA for induction of mono-arthritis. On day 3, the back of each animal was shaved. […] Rats received daily treatments for four consecutive days of either vehicle gel, or CBD gel. Gel was applied to the skin in a templated region on the dorsal surface of the rat and rubbed into the skin for 30 sec to ensure complete coverage. The nitrile template was used to ensure specific area reproducibility. […] Exploratory activity was monitored prior to initial gel application and on the third day post gel application (after 6 h). […] Blood samples were obtained for CBD plasma quantification, and tissues (knee joints, dorsal root ganglia, spinal cord, brain) were collected after perfusion. […]
The LC/MS system used to analyze samples was comprised of a Waters Alliance 2695 pump and autosampler, a Micromass™ ZQ detector, and 996 photodiode array detector with MassLynx™ software (Waters Corp., Milford, Mass.). […] The ZQ detector was used with an electrospray ionization (ESI) probe set for single ion monitoring (SIM) for cannabidiol quantification. […]

The conditions of data set [5]: cited from earlier work.
The conditions of data set [6]: hairless guinea pigs, 1% hydroalcoholic CBD gel, up to 8 h post application; cited from earlier work.
The target of another data set is CB2 (Homo sapiens, UniProt P34972). The conditions noted are these: cited from earlier work.

Where “and” joins values, the source holds several entries; their conditions need not be identical. Equal values may be shown once. Entries after “also recorded” stand apart in the source; their conditions may differ. Read-outs that look alike come from different tables or passages of the source. Marks after values point to notes of the source that are not given here.

CB2, sequence (P34972 whole entry, species assumed): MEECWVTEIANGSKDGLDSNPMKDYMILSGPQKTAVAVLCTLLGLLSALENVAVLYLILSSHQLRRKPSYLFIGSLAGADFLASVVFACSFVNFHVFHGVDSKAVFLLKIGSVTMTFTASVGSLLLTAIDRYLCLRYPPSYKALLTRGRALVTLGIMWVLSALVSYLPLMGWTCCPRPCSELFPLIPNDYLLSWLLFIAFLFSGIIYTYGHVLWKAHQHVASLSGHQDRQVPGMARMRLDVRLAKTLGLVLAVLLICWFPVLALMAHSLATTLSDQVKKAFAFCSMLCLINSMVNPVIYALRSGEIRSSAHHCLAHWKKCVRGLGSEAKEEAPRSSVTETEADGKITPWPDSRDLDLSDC

Take `C=C(C)C1CCC(C)=CC1c1c(O)cc(CCCCC)cc1O` (stereo not drawn) [CBD, 2-[3-methyl-6-(1-methylethenyl)-2-cyclohexen-1-yl]-5-pentyl-1,3-benzenedi-ol]: the Knee joint circumference was 7.0 ± 0.3^b cm in data set [1] (0.6 mg/d CBD gel on skin); 7.1 ± 0.3^b cm in [1] (3.1 mg/d CBD gel on skin); 6.6±0.2 cm and 6.6 ± 0.2^b* cm in [1] (6.2 mg/d CBD gel on skin); 6.6±0.1 cm and 6.6 ± 0.1^a* cm in [1] (62.3 mg/d CBD gel on skin). Further, in data set [2] (0.6 to 62.3 mg/d CBD versus vehicle gel, p>0.05), the “Differences in knee joint temperature among the treatment groups” value was “no significant differences”. For the same compound, the Knee joint temperature in data set [2] (0.6 mg/d) is given as 31.2 ± 0.7^b ° C; in data set [2] (3.1 mg/d) it was 30.6 ± 0.6^b ° C; in data set [2] (6.2 mg/d) it was 31.7 ± 2.1^b ° C; in data set [2] (62.3 mg/d) it was 30.2 ± 0.9^a ° C. Further, the “PWL scores, improvement” value in data set [3] (0.6 mg/d and 3.1 mg/d, day 4) is given as “did not have improved PWL scores”. Besides, the “PWL, improvement compared to CFA rats receiving vehicle gel” value in data set [3] (6.2 mg/d, 4 h (d 1) post CBD dosing, p<0.05) was “improvement”. Moreover, in the data set on normal rats, the “Effect on PWL in normal animals” value is given as “no effect; also recorded: not affected”. Further, in the data set on normal (non-CFA) rats, the “Exploratory activities, six parameters (rearing events, rearing time, total beams broken, distance traveled, active time, resting time), differences” value is “No significant (p>0.05) differences; also recorded: no differences in activity measurements”. Besides, in data set [4], the “Linear pharmacokinetic correlation, slope” value is 1.0. Also, the Cmax plasma concentration in data set [5] (hairless guinea pigs dosed once with 6.2 mg/d CBD gel, n=3) was 45.8 ± 8.4 ng/mL; in data set [5] (hairless guinea pigs, 6.2 mg/d CBD gel, after 3 consecutive days of gel application, n=5) it was 85.6 ± 48.4 ng/mL. The “Time out to which CBD plasma concentrations were detected” value in data set [5] (hairless guinea pigs, after a single initial gel application) is reported as 120 h. The time to peak (Tmax) in data set [5] (hairless guinea pigs, multiple applications) was 40.0 ± 14.5 h; in data set [5] (hairless guinea pigs, single application), 6.7 ± 2.1 h. For the same compound, in data set [6], the “Residual drug remaining on the skin surface” value is “approximately 15%”. On CB2, the “Binding affinity for CB2” value is on record as “little binding affinity”.

The term Tmax denotes the time at which the peak concentration occurs.

The values are drawn from patent publication US20120202891A1, “Cannabinoid-Containing Compositions and Methods for Their Use” (UNIVERSITY OF KENTUCKY RESEARCH FOUNDATION, priority 2009, published 2012).
